Reference: patent US10428080B2, “TBK/IKK inhibitor compounds and uses thereof” (Merck Patent GmbH, priority 2015, dated 2019)
Structures can show the parent of a compound that is named as a salt.

Columns and labels:
IKKε = molecular target: T1, IKKε (Homo sapiens, UniProt Q14164); test: IKKe Biochemical Assay; conditions: read-out: IKKε IC50
T1 sequence (Q14164 1-716): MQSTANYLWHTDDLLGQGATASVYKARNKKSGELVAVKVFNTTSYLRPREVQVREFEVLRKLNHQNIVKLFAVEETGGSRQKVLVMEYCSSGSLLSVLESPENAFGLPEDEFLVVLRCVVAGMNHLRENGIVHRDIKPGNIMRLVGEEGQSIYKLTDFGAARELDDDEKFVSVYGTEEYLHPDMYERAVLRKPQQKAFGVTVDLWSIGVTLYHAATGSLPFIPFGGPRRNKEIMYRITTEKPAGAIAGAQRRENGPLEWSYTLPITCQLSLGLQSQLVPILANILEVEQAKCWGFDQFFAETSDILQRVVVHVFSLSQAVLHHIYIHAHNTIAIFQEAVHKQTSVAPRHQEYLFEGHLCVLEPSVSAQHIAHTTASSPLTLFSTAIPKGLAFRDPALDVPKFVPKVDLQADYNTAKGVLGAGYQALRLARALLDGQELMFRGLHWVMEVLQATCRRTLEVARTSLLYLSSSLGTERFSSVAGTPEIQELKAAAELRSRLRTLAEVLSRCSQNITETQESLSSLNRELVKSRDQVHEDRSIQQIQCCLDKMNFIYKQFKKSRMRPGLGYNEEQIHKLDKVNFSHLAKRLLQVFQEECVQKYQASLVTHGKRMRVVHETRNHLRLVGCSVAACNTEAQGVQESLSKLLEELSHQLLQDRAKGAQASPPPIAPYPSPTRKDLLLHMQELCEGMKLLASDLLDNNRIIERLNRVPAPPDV
Procedure: (§1) Test compounds were transferred into Labcyte polypropylene 384 well plates (P055-25) and diluted to 3 mM using DMSO. 3 mM test compounds were dispensed using Labcyte ECHO dose response module into (Greiner 784075 plates (columns 3-12 and 13-22, 10 point 1:4) so that high concentration was 30 uM final. 100 uM of a reference compound (1 uM final high concentration). Backfilling was performed if necessary so that all wells contain 1% DMSO final: […]
(§2) add 75 nl DMSO/well into columns 1, 2 and 24 using Labcyte Echo. add 75 nl 1.0 mM staurosporine/well into column 23 using Labcyte Echo (10 uM final) add 4.5 ul enzyme/well using multidrop dispenser add 3 ul substrate/well using multidrop dispenser incubate at 25° C. for 90 min. add 7.5 ul 2× stop buffer read on labchip ez reader II using IKKε. job
(§3) Raw data files were opened in the Caliper LabChip Reviewer program (Version 3.0.265.0 SP2) and peak assignments were adjusted to reflect “substrate first” with the software's post-run analysis options. A spline-fit baseline was applied using the software's analysis algorithm.

TBK1 = molecular target: T2, TBK1 (Homo sapiens, UniProt Q9UHD2); test: TBK Biochemical Assay; conditions: read-out: TBK1 IC50
T2 sequence (Q9UHD2 1-729): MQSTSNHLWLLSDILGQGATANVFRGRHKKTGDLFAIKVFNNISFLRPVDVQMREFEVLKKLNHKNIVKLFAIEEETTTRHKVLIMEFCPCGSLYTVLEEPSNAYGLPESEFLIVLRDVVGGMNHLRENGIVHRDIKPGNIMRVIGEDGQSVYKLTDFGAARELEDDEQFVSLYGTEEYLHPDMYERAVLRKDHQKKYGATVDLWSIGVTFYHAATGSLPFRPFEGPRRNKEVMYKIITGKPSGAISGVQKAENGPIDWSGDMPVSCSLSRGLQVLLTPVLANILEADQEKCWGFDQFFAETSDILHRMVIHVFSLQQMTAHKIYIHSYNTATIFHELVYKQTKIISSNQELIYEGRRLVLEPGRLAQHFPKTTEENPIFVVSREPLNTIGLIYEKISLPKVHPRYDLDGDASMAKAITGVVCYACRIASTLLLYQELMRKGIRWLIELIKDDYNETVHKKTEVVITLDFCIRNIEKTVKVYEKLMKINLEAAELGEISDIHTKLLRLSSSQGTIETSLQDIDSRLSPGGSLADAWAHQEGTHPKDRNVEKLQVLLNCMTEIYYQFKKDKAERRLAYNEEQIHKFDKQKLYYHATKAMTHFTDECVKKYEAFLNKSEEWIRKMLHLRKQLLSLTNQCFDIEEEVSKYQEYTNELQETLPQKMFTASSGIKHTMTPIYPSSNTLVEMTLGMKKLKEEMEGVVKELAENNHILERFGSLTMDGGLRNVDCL
Procedure: Example 482: TBK Biochemical Assay
as §1, with “Greiner” for “(Greiner”
as §2, with “C. in Heidolph incubator” for “C.”, “buffer using multidrop dispenser” for “buffer”, “TBK1.job” for “IKKε. job”
as §3

C[C@@H]1COC[C@H](C)[C@H]1Oc1ccc(-c2ccnc3cc(-c4ccc(C(=O)N(C)C)cc4)oc23)cc1C#N (single isomer, unassigned) [Compound 219, 4-(7-(3-cyano-4-(3,5-dimethyl-tetrahydro-2H-pyran-4-yloxy)phenyl)furo[3,2-b]pyridin-2-yl)-N,N-dimethylbenzamide hydrochloride]
IC50 (IKKε): 0.1 to 1 µM
IC50 (TBK1): 0.1 to 1 µM

C[C@@H]1COC[C@@H](C)C1Oc1ccc(-c2ccnc3cc(-c4ccc(C(=O)N(C)C)cc4)oc23)cc1C#N (single isomer, unassigned) [Compound 220, 4-(7-(3-cyano-4-(3,5-dimethyl-tetrahydro-2H-pyran-4-yloxy)phenyl)furo[3,2-b]pyridin-2-yl)-N,N-dimethylbenzamide hydrochloride]
IC50 (IKKε): 0.1 to 1 µM
IC50 (TBK1): 0.1 to 1 µM

C[C@@H]1COC[C@H](C)[C@@H]1Oc1ccc(-c2ccnc3cc(-c4ccc(C(=O)N(C)C)cc4)oc23)cc1C#N (single isomer, unassigned) [Compound 221, 4-(7-(3-cyano-4-(3,5-dimethyl-tetrahydro-2H-pyran-4-yloxy)phenyl)furo[3,2-b]pyridin-2-yl)-N,N-dimethylbenzamide hydrochloride]
IC50 (IKKε): 0.1 to 1 µM
IC50 (TBK1): 0.1 to 1 µM

COc1cc(C(=O)N(C)C)ccc1-c1cc2nccc(-c3ccc(OC4[C@H](C)COC[C@H]4C)c(C#N)c3)c2o1 (single isomer, unassigned) [Compound 231, 4-(7-(3-cyano-4-(3,5-dimethyl-tetrahydro-2H-pyran-4-yloxy)phenyl)furo[3,2-b]pyridin-2-yl)-3-methoxy-N,N-dimethylbenzamide]
IC50 (IKKε): < 0.1 µM
IC50 (TBK1): < 0.1 µM

COc1cc(C(=O)N[C@@H]2CCNC[C@@H]2F)ccc1-c1cc2nccc(-c3ccc(NC4CCOCC4)c(C#N)c3)c2o1 (single isomer, unassigned) [Compound 251, 4-(7-(3-cyano-4-(tetrahydro-2H-pyran-4-ylamino)phenyl)furo[3,2-b]pyridin-2-yl)-N-(3-fluoropiperidin-4-yl)-3-methoxybenzamide hydrochloride]
IC50 (IKKε): < 0.1 µM
IC50 (TBK1): < 0.1 µM

COc1cc(C(=O)N[C@@H]2CCNC[C@@H]2F)ccc1-c1cc2nccc(-c3cc(F)c(NC4CCOCC4)c(C#N)c3)c2o1 (single isomer, unassigned) [Compound 253, 4-(7-(3-cyano-5-fluoro-4-(tetrahydro-2H-pyran-4-ylamino)phenyl)furo[3,2-b]pyridin-2-yl)-N-(3-fluoropiperidin-4-yl)-3-methoxybenzamide hydrochloride]
IC50 (IKKε): < 0.1 µM
IC50 (TBK1): < 0.1 µM

COc1cc(C(=O)N[C@@H]2CCNC[C@@H]2F)ccc1-c1cc2nccc(-c3cc(F)c(NC4CCOCC4)c(C#N)c3)c2o1 (single isomer, unassigned) [Compound 254, 4-(7-(3-cyano-5-fluoro-4-(tetrahydro-2H-pyran-4-ylamino)phenyl)furo[3,2-b]pyridin-2-yl)-N-(3-fluoropiperidin-4-yl)-3-methoxybenzamide hydrochloride]
IC50 (IKKε): < 0.1 µM
IC50 (TBK1): 0.1 to 1 µM

CN(C)C(=O)c1ccc(-c2cc3nccc(-c4ccc(N5CC[C@H](F)C5)c(C#N)c4)c3o2)nc1 (single isomer, unassigned) [Compound 272, 6-(7-(3-cyano-4-(3-fluoropyrrolidin-1-yl)phenyl)furo[3,2-b]pyridin-2-yl)-N,N-dimethylnicotinamide hydrochloride]
IC50 (IKKε): < 0.1 µM
IC50 (TBK1): < 0.1 µM

CN(C)C(=O)c1ccc(-c2cc3nccc(-c4ccc(Oc5ccncc5)c(C#N)c4)c3o2)cc1 [Compound 200, 4-{7-[3-Cyano-4-(pyridin-4-yloxy)-phenyl]-furo[3,2-b]pyridin-2-yl}-N,N-dimethyl-benzamide]
IC50 (IKKε): > 5 µM

COC(=O)c1ccc(-c2cc3nccc(-c4ccc(OC5CC6(COC6)C5)c(C#N)c4)c3o2)cc1 [Compound 204]
IC50 (IKKε): 0.1 to 1 µM

COC(=O)c1ccc(-c2cc3nccc(-c4ccc(Oc5ccccc5F)c(C#N)c4)c3o2)cc1 [Compound 205]
IC50 (IKKε): > 5 µM

COc1cc(C(=O)N(C)C)ccc1-c1cc2nccc(-c3ccc(OC4CCOCC4OCc4ccccc4)c(C#N)c3)c2o1 (stereo not drawn) [Compound 211]
IC50 (IKKε): 0.1 to 1 µM

CC1CC(Oc2ccc(-c3ccnc4cc(-c5ccc(C(=O)N(C)C)cc5)oc34)cc2C#N)CC(C)O1 (stereo not drawn) [Compound 213, 4-{7-[3-Cyano-4-(2,6-dimethyl-tetrahydro-pyran-4-yloxy)-phenyl]-furo[3,2-b]pyridin-2-yl}-N,N-dimethyl-benzamide]
IC50 (IKKε): > 5 µM

CN(C)C(=O)c1cnc(-c2cc3nccc(-c4cc(F)c(NC5CCOCC5)c(C#N)c4)c3o2)c(F)c1 [Compound 248, 6-(7-(3-cyano-5-fluoro-4-(tetrahydro-2H-pyran-4-ylamino)phenyl)furo[3,2-b]pyridin-2-yl)-5-fluoro-N,N-dimethylnicotinamide]
IC50 (IKKε): 0.1 to 1 µM

COc1cc(C(=O)N(C)C)cnc1-c1cc2ncc(C3CC3)c(-c3ccc(NC4CCOCC4)c(C#N)n3)c2o1 [Compound 353, 6-(7-[6-cyano-5-[(oxan-4-yl)amino]pyridin-2-yl]-6-cyclopropylfuro[3,2-b]pyridin-2-yl)-5-methoxy-N,N-dimethylpyridine-3-carboxamide hydrochloride]
IC50 (TBK1): > 5 µM

COc1cc(C(=O)N(C)CCO)cnc1-c1cc2ncc(C(C)C)c(-c3ccc(OC4CCOCC4)c(C#N)n3)c2o1 [Compound 359, 6-[7-[6-cyano-5-(oxan-4-yloxy)pyridin-2-yl]-6-(propan-2-yl)furo[3,2-b]pyridin-2-yl]-N-(2-hydroxyethyl)-5-methoxy-N-methylpyridine-3-carboxamide hydrochloride]
IC50 (TBK1): > 5 µM

COc1cc(C(=O)N(C)C)cnc1-c1cc2ncc(C(C)C)c(-c3ccc(NC4CCOCC4)c(C#N)n3)c2o1 [Compound 361, 6-(7-[6-cyano-5-[(oxan-4-yl)amino]pyridin-2-yl]-6-(propan-2-yl)furo[3,2-b]pyridin-2-yl)-5-methoxy-N,N-dimethylpyridine-3-carboxamide]
IC50 (TBK1): > 5 µM

COc1ccc(C#N)cc1-c1ccnc2cc(-c3ncc(C(=O)N(C)C)cc3OC)oc12 [Compound 490, 6-{7-[5-Cyano-2-methoxy-phenyl)-furo[3,2-b]pyridin-2-yl}-5-methoxy-N,N-dimethyl-nicotinamide]
IC50 (TBK1): > 5 µM

COc1cc(C(=O)N(C)C)cnc1-c1cc2ncc(C3CC3)c(-c3ccc(NC4CCOCC4)c(C#N)c3)c2o1 [Compound 522, 6-(7-[3-cyano-4-[(oxan-4-yl)amino]phenyl]-6-cyclopropylfuro[3,2-b]pyridin-2-yl)-5-methoxy-N,N-dimethylpyridine-3-carboxamide]
IC50 (TBK1): > 5 µM
